The text below walks through data of ChEMBL document CHEMBL1201862, “PubChem BioAssay data set” (2004).

One assay addresses Genome polyprotein (Hepatitis C virus, UniProt Q2Q167). The experiment in a line: HCV core protein dimerization inhibitors, dose response, biochemical, TR-FRET (AID 2159).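 Also: blocks dimerization of HCV core protein measured by TR-FRET between tagged core106 pairs.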 On the set-up: species or system Hepacivirus hominis.
Assay [1] has as its target Diphosphomevalonate decarboxylase (Streptococcus pneumoniae serotype 2 (strain D39 / NCTC 7466), UniProt Q9FD53). Briefly: S. pneumoniae DPM-DC inhibition retest, confirmation, biochemical, cuvette format, coupled NADH fluorescence (AID 1028). The format is functional.
Assay [2] can be described thus: Luminescent dose response cell-based high throughput screening assay for inhibitors of the Janus kinase 2 mutant JAK2V617F. [Related pubchem assays: 1446 (Primary screen.), 1521 (Confirmation assay.), 1486 (Counter screen.)]. The format is functional.
Assay [3] addresses Ubiquitin carboxyl-terminal hydrolase BAP1 (Homo sapiens, UniProt Q92560). The experiment in a line: BAP1 deubiquitinase inhibitors, dose response, biochemical (AID 714). The format is functional.
The next assay addresses Nonstructural protein 1 (Influenza A virus, UniProt Q194T2). The class given is functional, Influenza A virus (A/California/07/2009(H1N1)).
The next assay has as its system INS1. Briefly: beta cell apoptosis inhibitors, cytokine rescue, dose response, luminescence, retest (AID 449756).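 Also: cell death triggered by IL-1 beta plus TNF-alpha plus IFN-gamma mixture; protective hits raise ATP signal compared with cytokine alone wells.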 The format is functional, cell-based. To be noted: Rattus norvegicus.
The nature of assay [4]: cells. The conditions noted are these: HEK293.
Assay [5] in a line: human group III sPLA2 inhibitors, dose response, biochemical, QFRET, IC50 (AID 743457).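 Also: green fluorescence rise as the enzyme cleaves BODIPY PC-A2 in liposomes; potency for inhibition of the enzyme.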
Assay [6] can be described thus: HepG2 cell cytotoxicity, dose response, cytotoxicity control, ATP luminescence, cherry-pick, set 6 (AID 1053125). The class given is functional, cell-based.
The next assay addresses Galanin receptor type 2 (Homo sapiens, UniProt O43603). Briefly: Dose Response cell-based high-throughput screening assay to identify agonists of galanin receptor 2 (GALR2). [Related pubchem assays: 864 ]. The class given is functional.
For a further assay, the system named is Streptococcus. Briefly: Group A Streptococcus viability loss, dose response, counter-screen for streptokinase expression inhibitor project, luminescence, BacTiterGlo (AID 1915).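 Also: potency for reduction of bacterial viability or growth.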 The format is functional, organism-based.
The subject of assay [7] is Streptococcus sp. 'group A'. Briefly: growth inhibition of control SK(-) GAS strain, dose response, counter-screen for streptokinase expression inhibitor project, luminescence, kanamycin, BacTiterGlo, confirmation (AID 1900). The format is functional, organism-based.
Assay [8] is described as follows: cells. To be noted: A549.
Assay [9] concerns Vero. The experiment in a line: cytotoxicity of synthesized analogs in Vero cells, SAR follow-up, cytotoxicity control for West Nile virus antiviral project, cell-based, set II (AID 2402). The class given is functional. The conditions noted are these: Chlorocebus sabaeus.
Assay [10] relates to Vero. The experiment in a line: cytotoxicity of synthesized analogs in Vero 76, SAR follow-up, cytotoxicity control for West Nile virus antiviral project, Vero 76 cells (AID 2414). The format is functional. To be noted: Chlorocebus sabaeus.
In assay [11] the target is Voltage-gated N-type calcium channel alpha-1B subunit/Amyloid beta A4 precursor protein-binding family A member 1 (Homo sapiens, UniProt Q00975+Q02410). The class given is protein assay.

SMILES strings stand for the structures. Active and inactive are the calls of the source. Where only a bound is given, the exact number is not on record here.

Galanin receptor type 2, sequence (O43603 whole entry): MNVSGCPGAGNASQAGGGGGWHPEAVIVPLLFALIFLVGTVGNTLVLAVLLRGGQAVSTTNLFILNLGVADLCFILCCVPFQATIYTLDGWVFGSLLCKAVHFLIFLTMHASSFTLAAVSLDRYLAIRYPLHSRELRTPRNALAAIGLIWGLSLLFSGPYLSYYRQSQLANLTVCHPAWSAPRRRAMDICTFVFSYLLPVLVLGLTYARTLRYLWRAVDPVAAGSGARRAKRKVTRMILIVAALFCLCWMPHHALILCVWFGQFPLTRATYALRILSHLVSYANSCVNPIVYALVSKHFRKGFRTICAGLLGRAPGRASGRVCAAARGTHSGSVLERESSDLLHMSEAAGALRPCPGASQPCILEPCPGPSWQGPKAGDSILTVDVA
Nonstructural protein 1, sequence (Q194T2 whole entry): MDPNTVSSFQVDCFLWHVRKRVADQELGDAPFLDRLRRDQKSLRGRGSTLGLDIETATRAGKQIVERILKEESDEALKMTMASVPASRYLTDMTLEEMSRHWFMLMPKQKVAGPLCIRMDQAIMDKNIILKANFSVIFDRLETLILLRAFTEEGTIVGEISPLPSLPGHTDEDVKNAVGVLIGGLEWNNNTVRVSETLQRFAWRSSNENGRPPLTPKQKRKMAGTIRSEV
Ubiquitin carboxyl-terminal hydrolase BAP1, sequence (Q92560 whole entry): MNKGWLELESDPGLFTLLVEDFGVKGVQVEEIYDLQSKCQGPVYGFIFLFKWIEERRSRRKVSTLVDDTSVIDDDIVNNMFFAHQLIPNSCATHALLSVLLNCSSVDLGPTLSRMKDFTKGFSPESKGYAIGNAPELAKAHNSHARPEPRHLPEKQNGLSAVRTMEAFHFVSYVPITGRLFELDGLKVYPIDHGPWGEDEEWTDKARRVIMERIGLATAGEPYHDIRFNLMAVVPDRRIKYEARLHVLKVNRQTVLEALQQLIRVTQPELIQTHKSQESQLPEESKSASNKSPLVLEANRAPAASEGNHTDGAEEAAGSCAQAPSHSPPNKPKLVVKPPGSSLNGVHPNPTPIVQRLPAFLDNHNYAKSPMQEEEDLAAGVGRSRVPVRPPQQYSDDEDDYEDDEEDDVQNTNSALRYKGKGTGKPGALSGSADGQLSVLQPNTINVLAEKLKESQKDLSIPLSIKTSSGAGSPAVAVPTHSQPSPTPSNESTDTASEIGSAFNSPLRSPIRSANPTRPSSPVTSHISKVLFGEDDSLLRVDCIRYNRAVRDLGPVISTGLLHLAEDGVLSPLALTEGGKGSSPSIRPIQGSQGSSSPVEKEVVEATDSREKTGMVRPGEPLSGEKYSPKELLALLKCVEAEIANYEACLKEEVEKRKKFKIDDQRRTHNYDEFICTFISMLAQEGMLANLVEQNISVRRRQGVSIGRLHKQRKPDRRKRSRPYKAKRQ
Genome polyprotein, sequence (Q2Q167 whole entry): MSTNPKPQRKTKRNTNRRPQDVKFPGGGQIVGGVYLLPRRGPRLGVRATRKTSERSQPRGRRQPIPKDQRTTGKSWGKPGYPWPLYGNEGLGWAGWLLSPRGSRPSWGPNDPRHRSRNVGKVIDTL
Diphosphomevalonate decarboxylase, sequence (Q9FD53 whole entry): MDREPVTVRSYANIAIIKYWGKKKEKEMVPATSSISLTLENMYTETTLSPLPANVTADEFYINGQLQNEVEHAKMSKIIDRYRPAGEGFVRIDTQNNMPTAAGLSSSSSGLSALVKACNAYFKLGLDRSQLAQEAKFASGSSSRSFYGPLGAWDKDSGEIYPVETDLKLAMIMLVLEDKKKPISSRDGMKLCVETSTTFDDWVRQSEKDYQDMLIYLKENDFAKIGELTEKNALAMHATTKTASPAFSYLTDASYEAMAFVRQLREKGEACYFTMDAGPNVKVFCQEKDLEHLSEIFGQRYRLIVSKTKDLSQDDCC
Voltage-gated N-type calcium channel alpha-1B subunit/Amyloid beta A4 precursor protein-binding family A member 1, sequence (Q00975 whole entry): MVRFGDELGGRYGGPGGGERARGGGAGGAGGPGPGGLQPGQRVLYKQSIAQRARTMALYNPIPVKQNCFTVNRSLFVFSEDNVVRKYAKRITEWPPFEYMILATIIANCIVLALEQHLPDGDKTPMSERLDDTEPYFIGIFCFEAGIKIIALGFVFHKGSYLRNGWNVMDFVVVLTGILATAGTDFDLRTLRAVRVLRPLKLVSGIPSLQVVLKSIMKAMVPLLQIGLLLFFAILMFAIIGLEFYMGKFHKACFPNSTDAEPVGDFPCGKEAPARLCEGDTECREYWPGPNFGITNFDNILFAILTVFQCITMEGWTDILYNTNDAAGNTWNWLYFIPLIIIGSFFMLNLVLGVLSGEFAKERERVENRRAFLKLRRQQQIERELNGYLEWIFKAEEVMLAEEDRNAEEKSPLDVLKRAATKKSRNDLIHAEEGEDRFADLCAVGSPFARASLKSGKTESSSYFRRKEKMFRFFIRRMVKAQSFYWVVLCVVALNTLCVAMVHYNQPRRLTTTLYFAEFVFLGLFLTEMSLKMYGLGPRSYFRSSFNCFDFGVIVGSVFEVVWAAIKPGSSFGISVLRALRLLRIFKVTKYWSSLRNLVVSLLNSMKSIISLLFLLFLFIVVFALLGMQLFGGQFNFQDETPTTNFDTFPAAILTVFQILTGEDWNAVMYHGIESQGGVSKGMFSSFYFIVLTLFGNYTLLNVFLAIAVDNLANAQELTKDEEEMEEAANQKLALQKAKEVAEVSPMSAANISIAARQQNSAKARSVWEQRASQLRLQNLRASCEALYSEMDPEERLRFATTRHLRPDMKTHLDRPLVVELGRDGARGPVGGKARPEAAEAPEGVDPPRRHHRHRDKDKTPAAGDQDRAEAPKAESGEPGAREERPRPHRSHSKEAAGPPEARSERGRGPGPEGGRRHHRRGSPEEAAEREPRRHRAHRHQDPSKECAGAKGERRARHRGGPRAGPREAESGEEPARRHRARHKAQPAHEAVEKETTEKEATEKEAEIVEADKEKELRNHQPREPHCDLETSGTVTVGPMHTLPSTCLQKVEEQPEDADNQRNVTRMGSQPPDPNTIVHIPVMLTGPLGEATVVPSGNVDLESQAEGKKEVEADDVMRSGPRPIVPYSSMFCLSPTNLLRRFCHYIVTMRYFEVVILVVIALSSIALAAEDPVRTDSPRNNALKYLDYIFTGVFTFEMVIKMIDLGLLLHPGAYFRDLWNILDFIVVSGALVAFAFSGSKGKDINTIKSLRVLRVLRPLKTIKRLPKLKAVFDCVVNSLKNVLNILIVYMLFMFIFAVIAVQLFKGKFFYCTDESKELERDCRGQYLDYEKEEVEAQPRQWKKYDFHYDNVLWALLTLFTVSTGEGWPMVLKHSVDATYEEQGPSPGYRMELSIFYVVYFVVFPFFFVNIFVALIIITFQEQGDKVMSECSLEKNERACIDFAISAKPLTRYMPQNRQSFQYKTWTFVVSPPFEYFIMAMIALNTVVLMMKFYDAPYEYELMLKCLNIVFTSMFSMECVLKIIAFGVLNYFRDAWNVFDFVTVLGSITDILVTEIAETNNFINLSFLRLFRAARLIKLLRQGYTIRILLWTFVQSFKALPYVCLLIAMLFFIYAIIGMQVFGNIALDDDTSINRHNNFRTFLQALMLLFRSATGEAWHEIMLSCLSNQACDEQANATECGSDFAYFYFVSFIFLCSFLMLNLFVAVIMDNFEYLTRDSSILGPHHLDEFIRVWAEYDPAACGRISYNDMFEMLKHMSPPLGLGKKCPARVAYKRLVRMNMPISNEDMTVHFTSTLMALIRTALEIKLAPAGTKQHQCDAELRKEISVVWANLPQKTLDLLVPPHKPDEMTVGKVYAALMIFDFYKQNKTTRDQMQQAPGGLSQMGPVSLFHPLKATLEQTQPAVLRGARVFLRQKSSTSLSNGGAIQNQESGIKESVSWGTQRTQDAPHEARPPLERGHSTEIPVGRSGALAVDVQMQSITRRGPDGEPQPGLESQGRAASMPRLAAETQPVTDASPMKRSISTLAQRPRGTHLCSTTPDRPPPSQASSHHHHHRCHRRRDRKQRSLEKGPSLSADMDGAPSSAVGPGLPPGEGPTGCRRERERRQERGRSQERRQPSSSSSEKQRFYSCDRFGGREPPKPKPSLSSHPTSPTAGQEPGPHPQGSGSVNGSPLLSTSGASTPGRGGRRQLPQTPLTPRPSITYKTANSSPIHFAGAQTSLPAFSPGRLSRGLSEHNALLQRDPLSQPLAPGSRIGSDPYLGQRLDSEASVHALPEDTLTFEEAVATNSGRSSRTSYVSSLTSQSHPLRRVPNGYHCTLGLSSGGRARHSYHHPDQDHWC
Voltage-gated N-type calcium channel alpha-1B subunit/Amyloid beta A4 precursor protein-binding family A member 1, sequence (Q02410 whole entry): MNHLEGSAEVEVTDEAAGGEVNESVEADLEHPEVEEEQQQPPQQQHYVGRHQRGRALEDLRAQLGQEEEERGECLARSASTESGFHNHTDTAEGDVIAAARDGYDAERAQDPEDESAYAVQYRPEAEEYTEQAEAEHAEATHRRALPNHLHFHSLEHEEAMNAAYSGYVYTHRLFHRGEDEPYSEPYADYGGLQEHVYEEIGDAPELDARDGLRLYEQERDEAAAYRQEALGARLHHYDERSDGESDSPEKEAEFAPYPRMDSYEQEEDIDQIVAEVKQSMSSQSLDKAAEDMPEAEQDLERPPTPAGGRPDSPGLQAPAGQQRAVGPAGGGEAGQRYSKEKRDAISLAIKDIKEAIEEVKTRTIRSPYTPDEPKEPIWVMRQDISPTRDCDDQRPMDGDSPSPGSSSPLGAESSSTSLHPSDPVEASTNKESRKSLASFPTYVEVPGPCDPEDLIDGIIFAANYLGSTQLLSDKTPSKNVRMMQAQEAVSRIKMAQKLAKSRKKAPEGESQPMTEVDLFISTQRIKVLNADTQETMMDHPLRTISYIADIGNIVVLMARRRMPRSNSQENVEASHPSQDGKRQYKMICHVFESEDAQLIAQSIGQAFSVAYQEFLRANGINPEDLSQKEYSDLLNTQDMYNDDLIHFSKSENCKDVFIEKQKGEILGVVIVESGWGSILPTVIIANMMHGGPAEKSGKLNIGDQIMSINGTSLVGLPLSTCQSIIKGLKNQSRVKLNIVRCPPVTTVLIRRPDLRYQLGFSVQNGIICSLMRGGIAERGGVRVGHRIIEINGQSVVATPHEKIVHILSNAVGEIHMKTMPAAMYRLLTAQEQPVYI

Take `Sc1nc(Cc2ccccc2)nc2ccccc12`: on Genome polyprotein, the IC50 is > 49.8 µM (not active).

On to `O=C(NCc1ccccc1)c1ccc(-n2sc3ccccc3c2=O)cc1`, for which the IC50 in assay [1] was 9.98 µM (active).

Take `Oc1ccccc1OCCOc1ccccc1OCCOc1ccccc1O`: the IC50 in [2] was 1.48 µM (active).

With `COc1ccc2nc(NC(=O)CCc3nc(-c4ccccc4F)no3)sc2c1`, in [3], the IC50 was 36.6 µM (not active).

Turning to `Cc1cccc2sc(NNC(=O)c3ccc(S(=O)(=O)N4CCCC(C)C4)cc3)nc12` (stereo unspecified), the values for the IC50 (on Nonstructural protein 1; in assay [5]) were > 100 µM (active) and 21.3 µM (inactive), respectively. For the same molecule, the AC50 in the assay with INS1 is 1.12 µM (active); in “cells [4]” it was 4.7 µM (active); in assay [6] it was 4.56 µM (active); in “cells [8]”, 8.96 µM (active). Moreover, the EC50 on Galanin receptor type 2 is > 55.7 µM (not active); in the assay with Streptococcus, 8.56 µM (active); in assay [7], 0.493 µM (active).

`OC1c2cc(Br)ccc2N=C2CCCCCN21` (stereo unspecified): the CC50 is 37.6 µM (active) in the assay with Vero [9] and 61 µM (active) in the assay on Vero [10].

For `Nc1cccc(-c2nc3cc(S(=O)(=O)c4ccc5oc(-c6cccc(N)c6)nc5c4)ccc3o2)c1`, the IC50 in [11] is 13.2 µM (active).
